Results reported in PubChem BioAssay (NCI).
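Following 48 hours of exposure in 96-well plates, responses at five concentrations were used to interpolate endpoints linearly. The concentration for full growth arrest is given as TGI.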

Columns and labels:
Assay in all cases: NCI anticancer screen, dose series, 48 h
786-0 renal = tested on: 786-0 renal
A549 NSCLC = tested on: A549 NSCLC
CCRF-CEM leukemia = tested on: CCRF-CEM leukemia
EKVX NSCLC = tested on: EKVX NSCLC
HT29 colon = tested on: HT29 colon
M14 melanoma = tested on: M14 melanoma
MOLT-4 leukemia = tested on: MOLT-4 leukemia
NCI-H460 lung = tested on: NCI-H460 lung
OVCAR-4 ovarian = tested on: OVCAR-4 ovarian
SNB-75 CNS = tested on: SNB-75 CNS
TK-10 renal = tested on: TK-10 renal
U251 CNS = tested on: U251 CNS
UACC-62 melanoma = tested on: UACC-62 melanoma

Compound	TGI (786-0 renal) [µM]	TGI (A549 NSCLC) [µM]	TGI (CCRF-CEM leukemia) [µM]	TGI (EKVX NSCLC) [µM]	TGI (HT29 colon) [µM]	TGI (M14 melanoma) [µM]	TGI (MOLT-4 leukemia) [µM]	TGI (NCI-H460 lung) [µM]	TGI (OVCAR-4 ovarian) [µM]	TGI (SNB-75 CNS) [µM]	TGI (TK-10 renal) [µM]	TGI (U251 CNS) [µM]	TGI (UACC-62 melanoma) [µM]
Nc1ncc2c(n1)-c1ccccc1OC2N1CCOCC1 (stereo not given)	> 100	> 100	> 100	> 100	> 100	> 100	> 100	> 100	> 100	> 100	> 100	> 100	> 100
Cc1nn(C(=O)c2ccc(Cl)cc2)c2c1C(c1ccc(Cl)cc1)SC(N)=N2 (stereo not given)	> 10	> 10	> 10	> 10	> 10	> 10	> 10	> 10	> 10	> 10	> 10	> 10	> 10
COC(=O)/C(=N\N)C(C(=O)C(=O)Nc1nc(=S)[nH][nH]1)c1nc2ccc([N+](=O)[O-])cc2[nH]c1=O (stereo not given)	> 100	> 100	> 100	> 100	> 100	> 100	> 100	> 100	> 100	> 100	> 100	> 100	> 100
C=CCN1C(=O)CS/C1=N\NC(=O)CSc1nc2ccccc2c(=O)n1CC	> 100	> 100	> 100	> 100	> 100	> 100	> 100	44.4	> 100	> 100	> 100	> 100	> 100
CC(C)CC1NC(=O)CCC(NC(=O)C(Cc2ccc(O)cc2)NC(=O)OCc2ccccc2)C(=O)NC(Cc2ccccc2)C(=O)NC(Cc2ccccc2)NC1=O (stereo not given)	> 100	> 100	> 100	> 100	> 100	> 100	> 100	> 100	> 100	> 100	> 100	> 100	> 100
Cn1c(N)c(/C=C/C(=O)Oc2ccccc2)c(=O)n(C)c1=O	> 100	> 100	> 100	> 100	> 100	> 100	> 100	> 100	> 100	66.5	> 100	> 100	> 100
O=C1c2c(O)cccc2Cc2cc(CO)cc(O)c21	11.4	9.08	> 100	9.62	> 100	10.9	57.9	8.04	14.4	5.44	14.9	10.7	–
C/C=C1/C(=Cc2[nH]c(C=c3[nH]/c(=C/C4=NC(=O)C(CC)=C4C)c(C)c3CCC(=O)O)c(CCC(=O)O)c2C)NC(=O)C1C (stereo not given)	> 50	27	> 50	> 50	49	6.11	37.2	40.6	> 50	> 50	> 50	> 50	20.3
O=C(O)CCC(NC(=O)c1ccc(Oc2nc3ccccc3nc2-c2ccccc2)cc1)C(=O)O (stereo not given)	> 100	> 100	> 100	> 100	> 100	> 100	> 100	> 100	> 100	> 100	> 100	> 100	> 100
c1cc2c3ccsc3c3sccc3c2s1	> 100	> 100	> 100	> 100	> 100	> 100	> 100	> 100	> 100	> 100	> 100	> 100	> 100
N#CC(C#N)=Cn1c(=S)[nH]c2ccc([N+](=O)[O-])cc21	> 100	> 100	> 100	> 100	> 100	> 100	> 100	> 100	> 100	> 100	> 100	> 100	> 100
NC(=O)NC(=O)c1cccc(NC(=O)CCl)c1	3.91	> 28.1	4.16	26.5	7.37	–	15.4	3.92	25.7	7.06	6.76	2.41	2.63
CC12CCC(=O)[C@@]1(C)CCCC2O (stereo not given in full)	> 100	> 100	> 100	> 100	> 100	> 100	> 100	> 100	> 100	> 100	> 100	> 100	> 100
C/C(=N/N)c1sc(-c2nc(C)c(/C(C)=N\N)s2)nc1C	> 100	> 100	> 76.7	> 100	> 100	> 100	83.3	> 100	> 100	> 100	> 100	> 100	> 100
CN1N=C(c2ccccc2)c2cc(Cl)ccc2N=C1N/N=C/c1ccc(N(C)C)cc1	> 100	> 100	> 100	> 100	> 100	> 100	> 100	> 100	> 100	> 100	> 100	> 100	> 100
COc1ccc(NC(/C(C(=O)C(=O)/C=C(\O)c2ccccc2)=C(\O)c2ccccc2)c2ccc(OC)cc2)cc1 (stereo not given)	> 100	> 100	> 100	50.9	> 100	> 100	> 100	> 100	> 100	51.9	> 100	> 100	> 100
COC1(C)CNCC(C)(C)NC(=O)C(C)(OC)CNCC(C)(C)NC1=O (stereo not given)	> 100	> 100	> 100	> 100	> 100	> 100	> 100	> 100	> 100	> 100	> 100	> 100	> 100

Compound	TGI (786-0 renal) [µM]	TGI (A549 NSCLC) [µM]	TGI (CCRF-CEM leukemia) [µM]	TGI (EKVX NSCLC) [µM]	TGI (HT29 colon) [µM]	TGI (M14 melanoma) [µM]	TGI (MOLT-4 leukemia) [µM]	TGI (NCI-H460 lung) [µM]	TGI (OVCAR-4 ovarian) [µM]	TGI (SNB-75 CNS) [µM]	TGI (TK-10 renal) [µM]	TGI (U251 CNS) [µM]	TGI (UACC-62 melanoma) [µM]
CCOC(=O)c1csc(-c2cn(C)c3c2C(=O)C(OC)=CC3=O)n1	> 100	97.1	> 100	> 100	> 100	63.3	> 100	> 41.6	> 100	> 83.4	> 100	> 100	> 59
Oc1cccc2ccc(Br)nc12	> 100	> 100	> 100	> 100	> 100	> 100	> 100	> 100	> 100	> 100	> 100	> 100	> 100
Cc1cc(C)c(C(=O)C(C)C(c2ccccc2)c2ccc(Cl)cc2)c(C)c1 (stereo not given)	> 100	> 100	> 100	> 100	> 100	> 100	> 100	> 100	> 100	> 100	> 100	> 100	> 100
O=c1[nH]c(=O)n(C2CC(O)C(COP(=O)(OCC(Cl)(Cl)Cl)OCC(Cl)(Cl)Cl)O2)cc1F (stereo not given)	> 100	> 100	> 100	> 100	> 100	> 100	> 100	> 100	> 100	> 100	> 100	> 100	> 100
COc1cc2cnc3c4cc(OC)c(OC(C)C)cc4ccc3c2cc1OC	> 100	> 100	> 100	> 100	> 100	> 100	> 100	> 100	> 100	> 100	> 100	> 100	> 100
CCOC(=O)CCc1ccc(NC(=O)/C=C/c2ccc([N+](=O)[O-])o2)cc1	1.72	15.1	0.957	> 100	3.43	2.43	0.547	4.78	> 100	11.2	4.07	6.42	> 20.5
O=C(CCN1CCCC1)c1ccc(Oc2ccc(F)cc2)cc1	31.8	> 100	46.7	> 100	> 100	99.5	43.3	> 100	> 100	> 100	> 100	> 100	> 100
CCc1cccc(NC(=O)c2cc(/C=C/c3ccccc3)[nH]c(=S)n2)c1	> 100	> 100	> 100	> 100	> 100	> 100	> 100	> 100	> 100	> 100	> 100	> 100	> 100
C[C@]12CC[C@H](O)CC1=CC[C@@H]1[C@@H]2CC[C@]2(C)NC(=O)/C(=C\c3ccccc3)C[C@@H]12	52	33.4	48.5	28.4	31.5	29.2	98.5	68.9	60.8	48.5	83.2	30.3	38.6
C[C@H]1S[C@H](c2c(F)cccc2F)n2c1nc1ccccc12	> 100	> 100	> 100	> 100	> 100	> 100	> 100	> 100	> 100	> 100	> 100	> 100	> 100
CC(=O)OCC1=CC2CCC3C(C)(CCC[C@]3(C)COC(C)=O)C23CC[C@H]1C3 (stereo not given in full)	> 100	> 100	93.3	> 100	> 100	> 100	51.5	> 100	> 100	> 100	> 100	> 100	> 100
Cc1ccc(CN2CCN(Cc3ccc(C)o3)C(C)C2)o1 (stereo not given)	> 100	> 100	> 100	> 100	> 100	> 100	> 100	> 100	> 100	> 100	> 100	> 100	> 100
c1ccc(COC[C@H]2C3OCC([C@H](OCc4ccccc4)[C@H]3OCc3ccccc3)N2Cc2ccccc2)cc1 (stereo not given in full)	> 100	> 100	> 100	> 100	> 100	> 100	> 51.7	> 100	> 100	> 100	> 100	> 100	> 100
COC1(OC)C2C=CC1C([C@](C)(N)CO)C2 (stereo not given in full)	> 100	> 100	> 100	> 100	> 100	> 100	> 100	> 100	> 100	> 100	> 100	> 100	> 100
COC(=O)[C@H](C)N(C)C(=O)[C@H](C)N1[C@@H](c2ccccc2)COC1(C)C	> 100	> 100	> 100	> 100	> 100	> 100	> 100	> 100	> 100	> 100	> 100	> 100	> 100
Cc1cnc2[nH]c(-c3ccc(Cl)cc3)cc(=O)c2c1	> 100	> 100	> 100	> 100	> 39.1	> 100	> 53.7	> 100	> 100	> 100	> 100	> 32.4	> 100
COc1ccc(NC(=O)NNS(=O)(=O)c2ccc(C)cc2)cc1	> 100	> 100	> 100	> 100	> 100	> 100	> 100	> 100	> 100	> 100	> 100	> 100	> 100
